According to patent US4780476A, “Azoniaspironortropanol esters as asthma therapeutics and broncholytics” (Madaus GmbH & Co., priority 1985, dated 1988):
Entries after “also recorded” stand apart in the source; their conditions may differ. Counter-ions that a name gives are not always drawn.

Legend:
[1] = test system: awake guinea pig (cholinergically-induced bronchial cramps); assay: inhalative provocation with acetyl-β-methylcholine chloride aerosol on awake guinea pigs (broncholytic/protective action); format: in vivo; settings: for EC50: Cavia porcellus, read-out: EC50, average effective concentration w of acetyl-β-methylcholine chloride (provocation substance) after pre-treatment; for probit analysis reaction % observed: animals reacting with dyspnoea; for probit analysis reaction % calculated: probit regression
Description: animal strain: Pirbright white test substance: trospium chloride (MP 194) (M.W. 428) dosage: 3×10^-7 mole ml^-1 kg^-1 mode of administration: intraperitoneally test substance: dehydrotrospium chloride (WG 71) (M.W. 426) […]
reference substance: atropine hydrochloride (Serva; M.W. 325.8) […]
reference substance: isoproterenol (Fluka; M.W. 247.72) dosage: […]
further substances: acetyl-β-methylcholine chloride (Sigma; M.W. 195.7) mode of administration: 0.5 ml. min^-1 by inhalation.
The guinea pigs intended for an experiment are, after an acclimatization time of at least 8 days, subjected twice to an aerosol of 0.1% acetyl-β-methylcholine chloride solution since, as is known from experience, during the first two inhalative provocations, the animals react with more distinct respiratory disturbances than in the case of the subsequent provocations (adaptation). If, in the case of the two inhalation phases, a nonsensitivity (absence of respiratory disturbances) is observed towards the exposure, these animals are excluded from the actual experiment.
For the purpose of aerosol provocation, the guinea pigs are placed individually in an inhalation chamber (see Section 3.6 hereinafter) in which 0.5 ml. of solution per minute are atomized as droplet aerosol by means of a special nozzle (Rhema, Hofheim, Germany). […] With the help of a stopwatch, there is recorded the time from the commencement of inhalation to the appearance of the asphyctic state; the animals are immediately removed from the inhalation chamber and, as a rule, recover in a very short period of time (recovery of consciousness and normalization of breathing). If, within 180 seconds, no dysponea occurs, the inhalation is discontinued.
One aerosol concentration is tested per test day; the time between the individual aerosol provocations is at least 1 week.
The inhalation chamber is a Plexiglass container specially made for this purpose, the lid of which can be closed in an air-tight manner by means of rubber sealing and grip closure means. The internal measurements of the chamber are 285×190×180 mm., which corresponds to a volume of about 9.75 liters. The special nozzle (Rhema, Hofheim, Germany, order No. 504104) is fixed to a recess on the lid and ensures a uniform supply of the available chamber space with the aerosol. The provocation solution is supplied to the nozzle via an infusion pump (Braun, Melsungen, Germany) (0.5 ml./minute) and there atomized with a superpressure of 180 kPa from an attached pressure gas bottle (artificial air, KW-free). For reasons of safety, the aerosol provocation is carried out under a ventilator.
The EC50, as well as the related confidence interval (p>95%), are determined from the probit regression lines of the percentage values (v. supra) provided with weight coefficients after line adaptation by the "maximum likelihood" method (10 iterations). Furthermore, there is examined the adaptation of the lines to the observed data by means of the chiquadrat test. For the evaluation, a calculation programme is commercially available (Olivetti).

[2] = target: T1, isolated tracheal spirals of the guinea pig (Cavia porcellus, UniProt H0W1Z3); assay: anticholinergic effectiveness on isolated tracheal spirals (antagonism against acetyl-β-methylcholine chloride); settings: for antagonism against acetyl-β-methylcholine chloride / anticholinergic effectiveness (in words): isolated guinea pig tracheal spirals
T1 construct: the whole of the trachea is roughly freed beginning from the larynx up to the tracheal bifurcation, removed and transferred; from tissue; host or cells: isolated trachea (spiral strips) of male Pirbright white guinea pigs
From the text: A model for this is the measurement of the anticholinergic effectiveness on isolated tracheal spirals of the guinea pig.
The test substance used was 3α-benziloyloxynortropane-8-spiro-1'-pyrrolidinium chloride (trospium chloride; MP 194), ipratropium bromide being used as comparison substance.
There is to be determined the anticholinergic effectiveness of MP 194 in comparison with the reference substance ipratropium bromide on the isolated tracheal spirals of the guinea pig.
3.1.1. animal species: guinea pig
3.1.2. animal strain: Pirbright white
3.3.1. test substance (test antagonist) trospium chloride (MP 194) (M.W. 428)
3.3.2. reference substance (reference antagonist) ipratropium bromide (Atrovent) (M.W. 412.4)
3.3.3.1. acetyl-β-methylcholine chloride (Sigma) (M.W. 195.7)
The guinea pig is stunned by a blow on the neck. Subsequently, the whole of the trachea is roughly freed beginning from the larynx up to the tracheal bifurcation, removed and transferred to tempered (37° C.) and carbogenized tyrode solution. After surrounding connective tissue has been removed as far as possible, the preparation is cut up spirally by means of fine scissors at an angle of about 45° and separated into two equal sized sections. After weighing, both preparations are provided proximally and distally with a silk thread. One thread serves for fixing the preparation by means of a loop to the bottom of the bath and the other is connected via a hook with the transducer above the bath vessel.
Subsequently, the preparations, corresponding to the calibration, are prestressed with about 80 mN and equilibrated from 50-100 minutes. During the equilibration phase, the nutrient solution in the bath vessels is renewed in 15 minute intervals. As soon as the resting muscle tonus of the preparation has stabilized, there takes place the cumulative addition of the agonist, whereby the addition of the next highest concentration first takes place when no further increase of contraction is recognisable (plateau). When the maximum contraction height of the preparation is achieved, the cumulative agonist addition is ended and the preparation is rinsed. After a further equilibration phase (v. supra), the cumulative addition of the agonist is repeated but this time in the presence of the test or reference antagonist.
3.6.1. The perfusion part consists of an L-shaped organ bath in the hollow space of which (longer limb) runs a double glass spiral through which the nutrient solution is passed into the actual bath vessel (28 ml. content; shorter limb). This bath vessel is divided into two chambers which are, however, connected together by two transverse connections. […] The inlet chambers as well as the feeding glass spirals are tempered from the outside to 37° C. by a separate liquid circulation. This tempering takes place with the help of a "Colora" ultra-thermostat type K (Colora Messtechnik GmbH, Dusseldorf, Germany) which serves as thermostat and pump. In order, in case of need, always to have available ready-for-use nutrient solution, above the organ bath is provided a double-walled storage container in which the nutrient solution is also tempered and carbogenised. This is connected via a glass stopcock and a polypropylene tube with double glass spiral in the interior of the organ bath.
3.6.2. The measurement and recording part includes a transducer (Statham-Universal-Zelle UC-2; Hugo Sachs Elektronic KG, Hugstetten, Germany). By means of a hanging-in weight, a force of 40 mN is produced on the transducer which passes as electrical signal via a connecting cable to a bridge amplifier. The amplification is smoothly so regulated that the force provided corresponds to a constant value on the scale or an analogous value on the millimeter paper of the recorder (dependent upon the amplification; see below). After fixing the organ, the preparation is prestressed to the doubled mark, corresponding to 80 mN. […]

[3] = pre-treatment 3×10^-7 mol ml^-1 kg^-1 i.p., 15 min before inhalation, w of acetyl-β-methylcholine chloride in atomised solution, control animals w=0.000539, higher = more protection
[4] = acetyl-β-methylcholine chloride w=0.000562, 10 tested, pre-treatment 3×10^-7 mol ml^-1 kg^-1 i.p.
[5] = acetyl-β-methylcholine chloride w=0.000562, pre-treatment 3×10^-7 mol ml^-1 kg^-1 i.p.
[6] = acetyl-β-methylcholine chloride w=0.001000, 10 tested (isoproterenol 9), pre-treatment 3×10^-7 mol ml^-1 kg^-1 i.p.
[7] = acetyl-β-methylcholine chloride w=0.001000, pre-treatment 3×10^-7 mol ml^-1 kg^-1 i.p.
[8] = acetyl-β-methylcholine chloride w=0.001780, pre-treatment 3×10^-7 mol ml^-1 kg^-1 i.p.
[9] = acetyl-β-methylcholine chloride w=0.001780, trospium chloride 10 tested, dehydrotrospium chloride 9, atropine 9, isoproterenol 8, pre-treatment 3×10^-7 mol ml^-1 kg^-1 i.p.
[10] = acetyl-β-methylcholine chloride w=0.003160, 10 tested (isoproterenol 9), pre-treatment 3×10^-7 mol ml^-1 kg^-1 i.p.
[11] = acetyl-β-methylcholine chloride w=0.003160, pre-treatment 3×10^-7 mol ml^-1 kg^-1 i.p.
[12] = acetyl-β-methylcholine chloride w=0.005620, 10 tested (isoproterenol 9), pre-treatment 3×10^-7 mol ml^-1 kg^-1 i.p.
[13] = acetyl-β-methylcholine chloride w=0.005620, pre-treatment 3×10^-7 mol ml^-1 kg^-1 i.p.

T1 sequence (H0W1Z3 1-590): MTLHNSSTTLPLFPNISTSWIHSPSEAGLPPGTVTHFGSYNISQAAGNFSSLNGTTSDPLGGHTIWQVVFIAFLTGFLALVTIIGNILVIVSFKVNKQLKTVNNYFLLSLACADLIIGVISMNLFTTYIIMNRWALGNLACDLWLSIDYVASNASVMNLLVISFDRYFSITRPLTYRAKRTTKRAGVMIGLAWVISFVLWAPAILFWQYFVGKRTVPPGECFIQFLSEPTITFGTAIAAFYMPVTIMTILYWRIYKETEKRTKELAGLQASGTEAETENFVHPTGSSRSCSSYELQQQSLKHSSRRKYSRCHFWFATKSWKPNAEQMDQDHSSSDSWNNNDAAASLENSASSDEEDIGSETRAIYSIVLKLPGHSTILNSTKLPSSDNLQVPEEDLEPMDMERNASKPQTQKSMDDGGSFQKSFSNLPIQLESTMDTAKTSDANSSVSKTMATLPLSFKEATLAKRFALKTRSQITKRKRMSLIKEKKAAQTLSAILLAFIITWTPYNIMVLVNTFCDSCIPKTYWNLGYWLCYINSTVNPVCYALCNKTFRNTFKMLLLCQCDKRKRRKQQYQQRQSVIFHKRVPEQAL

SMILES	EC50 [1, 3]	number of animals reacting [1, 4]	probit analysis reaction % calculated [1, 5]	number of animals reacting [1, 6]	probit analysis reaction % observed [1, 7]	probit analysis reaction % calculated [1, 7]	probit analysis reaction % observed [1, 8]	probit analysis reaction % calculated [1, 8]	number of animals reacting [1, 9]	number of animals reacting [1, 10]	probit analysis reaction % observed [1, 11]	probit analysis reaction % calculated [1, 11]	number of animals reacting [1, 12]	probit analysis reaction % observed [1, 13]	probit analysis reaction % calculated [1, 13]	further results
CN1[C@@H]2CC[C@H]1C[C@@H](OC(=O)C(CO)c1ccccc1)C2 (stereo partly shown) [atropine chloride, atropine hydrochloride, reference compound]	1380 µg/mL	3	38.93%	6	60.00%	45.98%	55.56%	53.16%	5	5	50.00%	60.20%	7	70.00%	66.95%	probit analysis reaction % observed [1, 5]: 30.00%; EC50, average effective concentration w of acetyl-β-methylcholine chloride (provocation substance) after pre-treatment [1, 3]: 0.00138; antagonism against acetyl-β-methylcholine chloride / anticholinergic effectiveness (in words) [2]: dosage dependent antagonism
O=C(O[C@H]1C[C@H]2CC[C@@H](C1)[N+]21CCCC1)C(O)(c1ccccc1)c1ccccc1 [trospium chloride, 3α-benziloyloxynortropane-8-spiro-1'-pyrrolidinium chloride]	2860 µg/mL	0	5.46%	1	10.00%	15.03%	50.00%	32.00%	5	5	50.00%	53.87%	7	70.00%	74.66%	broncholytic effectiveness compared with atropine and isoproterenol (in words) ([1]; 15 min after i.p. administration, equimolar dosages): comparable with or superior to the well known parasympatholytics atropine and the β-sympathomimetic isoproterenol; also recorded: greater effectiveness of the test substances, especially of trospium chloride, in comparison with the reference substances; probit analysis reaction % observed, correction according to Bliss ([1]; guinea pig, in vivo): 2.50; broncholytic effect (in words) ([1]; intraperitoneal, cholinergically-induced bronchial cramps, awake guinea pig): outstanding broncholytic effect; Kb ([2]; antagonism against acetyl-β-methylcholine chloride, read-out: pA2 ± s (converted)): 0.55 nM; quality of the antagonism (in words) ([2]; comparison of maximum effects in absence and presence of the antagonist, listed as MP 194): competitively antagonistically effective; also recorded: competitive antagonism; strength of activity compared with ipratropium bromide (in words) ([2]; comparison of pA2 values, t-test, listed as MP 194): equivalent to the reference substance ipratropium bromide; also recorded: does not differ significantly; also recorded: equal to the reference substance ipratropium bromide; antagonism against acetyl-β-methylcholine chloride / anticholinergic effectiveness (in words) ([2]; listed as MP 194): comparable, dosage-dependent antagonism; also recorded: clear anticholinergic effectiveness
